Measurements reported in PubChem BioAssay AID1996.
In brackets after ≈: the same amount, converted by molar mass.

Conditions: buffer; pH 7.4; 200.0 µM

SMILES | solubility kinetic
CN1CCN(c2nc(-c3ccc(Cl)cc3)cc(=O)[nH]2)CC1 | 39.8 µg/mL (≈ 131 µM)
CC(C)c1ccc(NC(=S)Nc2cccc3ccccc23)cc1 | 1.8 µg/mL (≈ 5.62 µM)
Cc1cc(C(=O)OCC(=O)N(C)c2ccccc2)ccc1[N+](=O)[O-] | 42.1 µg/mL (≈ 128 µM)
Cc1oc2c(CN3CCCC(C)C3)c(O)ccc2c(=O)c1-c1ccccc1 (stereo not given) | > 54.5 µg/mL
Cc1cccc(-c2noc(CCCC(=O)NCC3CCCO3)n2)c1 (stereo not given) | > 49.4 µg/mL
O=C(CNC(=O)COc1ccccc1)NCCc1ccccn1 | > 47 µg/mL
COCCCn1c(SCC(=O)N2CCOCC2)nc2ccccc2c1=O | 52.2 µg/mL (≈ 138 µM)
Cc1noc(C)c1COC(=O)[C@@H](NC(=O)c1ccccc1)C(C)C | > 49.6 µg/mL
Cc1ccccc1CSc1ccc(S(=O)(=O)N2CCCC2)cn1 | 3.1 µg/mL (≈ 8.9 µM)
O=C(CN1CCN(c2ccccc2)CC1)c1c[nH]c2ccccc12 | 4.4 µg/mL (≈ 13.8 µM)
CC(C)Cn1c(-c2cccnc2)nc2c1c(=O)[nH]c(=O)n2CC(C)C | 45.7 µg/mL (≈ 134 µM)
Cc1ccc(O)c(CNc2nccs2)c1 | 7.4 µg/mL (≈ 33.6 µM)
O=[N+]([O-])c1ccccc1/C=C/CN1CCC(O)CC1 | 29.2 µg/mL (≈ 111 µM)
CN(C)C(CNc1ccc(C(F)(F)F)cn1)c1ccccc1 (stereo not given) | > 46.4 µg/mL
CCS(=O)(=O)N1CCN=C1SCc1ccc(F)cc1 | 39.9 µg/mL (≈ 132 µM)
O=C(Nc1ccccc1C(=O)Nc1ccccn1)c1ccccc1F | 2 µg/mL (≈ 5.96 µM)
Cc1nc2ccc(Nc3ccncc3)cc2s1 | 34.2 µg/mL (≈ 142 µM)
COc1ccc(OC)c(N=Cc2c(O)c3ccccc3oc2=O)c1 | 3.6 µg/mL (≈ 11.1 µM)
CCOC(=O)N1CCN(C(=S)Nc2ccccc2C(C)C)CC1 | > 50.3 µg/mL
Cc1[nH]c2ccccc2c1C(=O)COC(=O)c1nccnc1N | 6.9 µg/mL (≈ 22.2 µM)
CN(C)c1cccc(C(=O)NCCCn2ccc3ccccc32)c1 | 23 µg/mL (≈ 71.6 µM)
CC1CCCCN1CCCNc1c(C=O)c(=O)[nH]c2ccccc12 (stereo not given) | 46.7 µg/mL (≈ 143 µM)
Cc1ccccc1NC(=O)Cc1cccs1 | > 34.7 µg/mL
N#CC(c1cccnc1)N1CCOCC1 (stereo not given) | > 30.5 µg/mL

SMILES | solubility kinetic
CC(=O)N/C(N)=N/c1nc2cc([N+](=O)[O-])ccc2o1 | 3.8 µg/mL (≈ 14.4 µM)
COc1ccccc1-c1nnc(SCC(=O)N2CCCC2)o1 | > 47.9 µg/mL
Cc1c(CCOC(=O)c2ccc(Cl)cc2Cl)sc[n+]1CC(=O)c1ccc(Br)cc1.[Br-] | 40.6 µg/mL
O=C(CNS(=O)(=O)c1ccc(Cl)cc1)N1CCN(c2ccc(F)cc2)CC1 | 8.3 µg/mL (≈ 20.2 µM)
Cc1ccc(OCC(=O)N2CC(C)CC(C)C2)c([N+](=O)[O-])n1 (stereo not given) | > 46.1 µg/mL
Cc1cc2ccccn2c1C(=O)c1cccc([N+](=O)[O-])c1 | 0.3 µg/mL (≈ 1.07 µM)
COc1ccc(CNC(=O)CSCc2c(F)cccc2Cl)cc1 | 5.5 µg/mL (≈ 15.5 µM)
NS(=O)(=O)c1ccc(CCNc2ccccc2[N+](=O)[O-])cc1 | 2.9 µg/mL (≈ 9.02 µM)
CC(CCc1ccccc1)NC(=O)CNc1cccc([N+](=O)[O-])c1 (stereo not given) | > 49.1 µg/mL
Cc1ccccc1-c1ccc(/C=C2/SC(N3CCOCC3)=NC2=O)o1 | 1.4 µg/mL (≈ 3.95 µM)
N#CCOC(=O)C1c2ccccc2Oc2ccccc21 | 35.2 µg/mL (≈ 133 µM)
CC(Nc1cccc(C(=O)NC2CC2)c1)c1nnc(-c2ccccc2)o1 (stereo not given) | > 52.3 µg/mL
Cc1ccccc1OCC(=O)OCC(=O)NCc1ccc2c(c1)OCO2 | 17.3 µg/mL (≈ 48.4 µM)
S=C(NCC1COc2ccccc2O1)Nc1ccccc1 (stereo not given) | 6.5 µg/mL (≈ 21.6 µM)
CC(C)CNC(=O)C(=O)Nc1cc2c3c(c1)CCC(=O)N3CCC2 | 5 µg/mL (≈ 15.2 µM)
CC(C)(C)C(=O)Nc1nnc(SCC(=O)NC2CC2)s1 | > 47.2 µg/mL
Nc1ccc(SC(F)(F)F)cc1 | 6 µg/mL (≈ 31.1 µM)
Cc1sc2c(c1C)C(=O)/C(=C\Nc1ccccn1)S(=O)(=O)N2C | < 0.2 µg/mL
Cc1ccc(OCCC(=O)Nc2ccc(C)c(F)c2)cc1 | 1.4 µg/mL (≈ 4.87 µM)
COc1ccc(C(OC(=O)c2ccco2)C(=O)NC(C)(C)C)cc1 (stereo not given) | > 49.7 µg/mL
Cc1c(C(=O)O)[nH]c2c1C(=O)CC(c1ccc(C(C)(C)C)cc1)C2 (stereo not given) | > 48.8 µg/mL
O=C(CN1C(=O)NC2(CCCCC2)C1=O)NCc1ccc2c(c1)OCO2 | 42.8 µg/mL (≈ 119 µM)
Cc1ccc(C)n1-c1nccc(-c2ccco2)n1 | 23.5 µg/mL (≈ 98.2 µM)
Cc1cc(C)nc(Nc2cc([N+](=O)[O-])ccc2C)n1.Cl | 5.4 µg/mL

SMILES | solubility kinetic
O=[N+]([O-])c1ccc(COc2cccc3cccnc23)cc1 | 2.4 µg/mL (≈ 8.56 µM)
Cc1ccc(C(=O)NC(=S)N(C)Cc2ccccc2)cc1 | 2 µg/mL (≈ 6.7 µM)
Cn1c(N)c(C(=O)COC(=O)/C=C/c2ccc(Cl)c(Cl)c2)c(=O)n(C)c1=O | 2.9 µg/mL (≈ 7.03 µM)
CN1CC(C(=O)c2cccs2)C(c2ccc(Cl)cc2)C1 (stereo not given) | > 45.9 µg/mL
O=C1CCC(C(=O)OCC(=O)Nc2cc(Cl)ccc2F)=NN1 | > 49.2 µg/mL
O=C(C1CCC1)N1CCN(S(=O)(=O)c2ccccc2)CC1 | > 46.3 µg/mL
CCc1ccc(NC(=O)CN2CC(c3ccccc3)CC2=O)cc1 (stereo not given) | > 48.4 µg/mL
CC1=NN(c2nc(-c3ccc(C#N)cc3)cs2)C(=O)C1 | > 42.3 µg/mL
CC(Sc1nncs1)C(=O)NC1CCCCC1C (stereo not given) | > 42.8 µg/mL
COc1cccc(NC(=O)c2ccccc2Oc2ccccc2)c1 | 6.4 µg/mL (≈ 20 µM)
O=C(Nc1ccc2c(c1)OCO2)C1CC(=O)N(c2ccccc2)C1 (stereo not given) | 3.3 µg/mL (≈ 10.2 µM)
CCn1c(C)c(C(=O)NCCc2ccccc2)c2cc(OC)ccc21 | 23 µg/mL (≈ 68.4 µM)
COc1cccc(NC(=O)CN(C)C(=O)c2cc(C)on2)c1 | > 45.5 µg/mL
NC(=O)c1ccc(NC(=O)COC(=O)c2cc3c(s2)CCC3)cc1 | 8.6 µg/mL (≈ 25 µM)
COc1cc2c(cc1OC)C(c1cc([N+](=O)[O-])ccc1O)NCC2 (stereo not given) | > 49.6 µg/mL
COc1cccc(NC(=O)CNCc2ccccc2)c1.Cl | > 46 µg/mL
N#Cc1ccccc1CCN1C(=O)c2ccccc2C1=O | 19.6 µg/mL (≈ 70.9 µM)
CCOc1ccc(Oc2ccc(Cl)cc2N)cc1.Cl | 4.5 µg/mL
CC(Sc1nncn1C)C(=O)NCCC1=CCCCC1 (stereo not given) | > 44.2 µg/mL
CC(C)(C)c1ccc(COn2ccnc2)cc1 | 27.1 µg/mL (≈ 118 µM)
COCc1cc(C)nc(OC)c1C(N)=O | 23.9 µg/mL (≈ 114 µM)
Cc1ccc2nc3c(nc2c1C)CCCC3 | 7.1 µg/mL (≈ 33.4 µM)
Nc1ccccc1Sc1ccc(C(F)(F)F)cc1[N+](=O)[O-] | 5.6 µg/mL (≈ 17.8 µM)
CC1CCN(C(=O)CCNC(=O)c2ccccc2)CC1 | 37.1 µg/mL (≈ 135 µM)

SMILES | solubility kinetic
Cc1ccc2nsnc2c1S(=O)(=O)Nc1ccccc1C(=O)O | > 52.4 µg/mL
COc1ccc(C(=O)CCC(=O)Nc2cccnc2)cc1 | > 42.6 µg/mL
COc1ccc(S(=O)(=O)NC2CC(C)(C)NC(C)(C)C2)cc1 | > 49 µg/mL
Nc1c2c(nc3cccc(Cl)c13)N(c1ccccc1)CC2 | 0.9 µg/mL (≈ 3.04 µM)
CCOC(=O)c1sc(S(C)(=O)=O)c2c1CCc1conc1-2 | 4 µg/mL (≈ 12.2 µM)
CCNC(=S)N1CCCCC1CO (stereo not given) | 27.2 µg/mL (≈ 134 µM)
CCOc1ccc(S(=O)(=O)Nc2ccc(C(=O)N3CCCC3)cc2)cc1 | 53.3 µg/mL (≈ 142 µM)
Cc1ccc(C)c(OCCn2ccnc2)c1 | 24.7 µg/mL (≈ 114 µM)
FC(F)(F)c1ccc(NCCc2ccccc2)nc1 | 3.7 µg/mL (≈ 13.9 µM)
Cc1cccc(NC(=O)c2cccc(N3C(=O)CCC3=O)c2)c1 | > 46.3 µg/mL
Nc1cc(=O)[nH]c(SCC(=O)c2ccc(F)cc2)n1 | > 41.9 µg/mL
CCCCN(C)C(=O)c1cc2c(s1)-c1ccccc1S(=O)(=O)C2 | > 52.4 µg/mL
O=c1sc2ccccc2c(N2CCOCC2)c1[N+](=O)[O-] | 12.8 µg/mL (≈ 43.8 µM)
O=S(=O)(Nc1ccc(Cl)cn1)c1ccc(F)cc1 | > 43 µg/mL
CC(C)OCCCNC(=O)COc1ccc2oc3c(c2c1)CCCC3 | 48.1 µg/mL (≈ 139 µM)
O=C(O)c1cccc(S(=O)(=O)Nc2cccc3ccccc23)c1 | > 49.1 µg/mL
O=C(CCSCc1ccccc1F)NCc1ccc(F)cc1 | 32.8 µg/mL (≈ 102 µM)
CCN(CC)CCNC(=O)c1cc2ccccc2nc1Cl | 31.2 µg/mL (≈ 102 µM)
O=[N+]([O-])c1cc(C(F)(F)F)ccc1NCC1CCCO1 (stereo not given) | 0.6 µg/mL (≈ 2.07 µM)
CSc1nc(-c2ccccc2F)c(C#N)c(=O)n1C | 20.7 µg/mL (≈ 75.2 µM)
COc1ccccc1CC(=O)N1CCN(S(=O)(=O)c2ccccc2F)CC1 | > 58.9 µg/mL
COCc1ccc(C(=O)Nc2ccc(C(=O)O)cc2)o1 | > 41.3 µg/mL
O=C(NC1CCCCC1)c1ccccc1C(F)(F)F | 38.9 µg/mL (≈ 143 µM)
CC(=O)c1cccc(NC(=S)NC(=O)c2ccccc2C)c1 | 1 µg/mL (≈ 3.2 µM)

SMILES | solubility kinetic
C=CCC(C=C)[N+]1(CC(=O)OC)CCCCC1.[Br-] (stereo not given) | > 47.7 µg/mL
Cc1cc2c(=O)n(C)c(SCC(=O)Nc3ccccc3)nc2s1 | 0.4 µg/mL (≈ 1.16 µM)
CC(=O)Nc1cccc(-c2nc3ccccc3o2)c1 | 6.3 µg/mL (≈ 25 µM)
CCOc1ccccc1C(=O)Nc1ccc(C(=O)c2ccccc2)cc1 | < 0.7 µg/mL
O=C(O)C1CC=C(Cl)CC1C(=O)NC1CCCCC1 (stereo not given) | > 42.9 µg/mL
CSc1ccc(CN2CCCN(C)CC2)cc1 | 22.1 µg/mL (≈ 88.3 µM)
Cc1cccc(Nc2nc(C)cc(C)n2)c1.Cl | 20.1 µg/mL
C=CC(=O)NC1CC2CCC1(C)C2(C)C (stereo not given) | > 31.1 µg/mL
O=C1c2ccsc2SCCN1Cc1ccc(F)cc1 | 40.5 µg/mL (≈ 138 µM)
COc1cc(S(=O)(=O)NCCCn2ccnc2)ccc1F | 46.2 µg/mL (≈ 147 µM)
O=C(CCCCCl)Nc1c2c(nc3ccccc13)CCC2 | 31.6 µg/mL (≈ 104 µM)
CC(=O)Nc1cc([As](=O)(O)O)ccc1O | > 41.3 µg/mL
CC(C)(C)N1C(=O)NC(=O)/C(=C\c2ccc3c(c2)CCN3CCCCl)C1=O | 38 µg/mL (≈ 97.5 µM)
CCOC(=O)c1cc(-c2c(Cl)cccc2Cl)no1 | 12.1 µg/mL (≈ 42.3 µM)
O=[N+]([O-])c1ccc2c(c1)nc1n2CCN(c2ccccc2)C1 | 6.8 µg/mL (≈ 23.1 µM)
CC(C)c1ccc(NC2CCCN(C(=O)c3ccncc3)C2)cc1 (stereo not given) | 47.1 µg/mL (≈ 146 µM)
COc1cc2c(C(=O)O)c(C)n(C)c2cc1Br | > 44.7 µg/mL
Cc1cccc(Cn2c(C)nc3ccc([N+](=O)[O-])cc3c2=O)c1 | 3.6 µg/mL (≈ 11.6 µM)
O=C(COc1cccc(F)c1)Nc1nc(-c2cccnc2)cs1 | 7.3 µg/mL (≈ 22.2 µM)
COc1cc(C2NC(=O)NC3=C2C(=O)OC3)cc(OC)c1OC (stereo not given) | > 48 µg/mL
O=C(NCc1cccnc1)c1cc(C(=O)C2CC2)c[nH]1 | > 40.4 µg/mL
Cc1cc(/C=C\c2ccccc2)nc2ccccc12 | < 0.5 µg/mL
CC(C)NC(=O)c1ccc(COc2ccc(C(C)(C)C)cc2)o1 | 0.7 µg/mL (≈ 2.22 µM)
O=C(NCCc1ccc(F)cc1)c1cc2ccccc2oc1=O | < 0.7 µg/mL
